According to US20050276767A1, “Composition containing an oily phase and a naphthopyran dye, cosmetic treatment processes” (L'OREAL, priority 2002, published 2005):
Values belong to the compound of their own block, whether it stands above or below them.

Assays:
Type in all cases: physicochemical
[1] = ΔE before/after UVA irradiation of dyes at 1% in a white lipstick base (Example 5); conditions: 1% by weight dye in white lipstick base; UVA 2 mW/cm^2 for two minutes
Protocol: The ΔE (before and after UV irradiation for 2 minutes) of various photochromic dyes according to the invention was determined, at 1% by weight in a white lipstick base comprising:
A composition comprising 1% of dye according to the invention and 99% of the above base is thus prepared.
(§1) The L, a and b measurements were performed on a Leneta brand contrast card of reference Form 1A Penopac, for a composition spread to a thickness of 50 microns.
(§2) The reflection measurements were performed using a Minolta 3700D spectrocolorimeter.
(§3) The initial trichromatic coordinates of the composition before irradiation (L0, a0 and b0) were thus determined.
(§4) The compositions were then subjected to a UV irradiation (flux of 2 mW/cm^2 of a UVA radiation) for two minutes and then, immediately after stopping the irradiation, the trichromatic coordinates after irradiation (L, a and b) were determined. Less than 5 seconds elapsed between the stopping of the irradiation and the determination of the new coordinates.
(§5) The ΔE was then calculated in the following manner: ΔE=[(L−L0)^2+(a−a0)^2+(b−b0)^2]^1/2

[2] = Solubility of the dye in various silicone oils, observed with the naked eye (Example 1)
Protocol: The term “soluble” means that the dyes form a uniform mixture, free of particles that are apparent to the naked eye, at 25° C. and 1 atmosphere, in a proportion of 0.05% by weight in the oily phase.
The solubility of a dye according to the invention in various silicone oils was studied. Several mixtures comprising 0.05% by weight of 3-phenyl-3-(4-piperidinophenyl)-6-morpholino-3H-naphtho[2,1-b]pyran (Reversacol Ruby from James Robinson) in various oils were thus prepared, and the mixture was then heated to 60° C. with stirring.

[3] = Visual colour change of the dye solution in phenylsilicone oil on UV (sunlight) irradiation (Example 2); conditions: 0.05% by weight in phenylsilicone oil DC556
Protocol: A solution comprising 0.05% by weight of 3-phenyl-3-(4-piperidinophenyl)-6-morpholino-3H-naphtho[2,1-b]pyran (Reversacol Ruby from James Robinson) in a phenylsilicone oil (DC556 from Dow Corning) was prepared. The mixture was then irradiated with UV (sunlight) for 2 minutes.

[4] = ΔE before/after UVA irradiation of wax-structured compositions, 50 micron film on contrast card, reflection (Examples 3 and 8)
Protocol: as §1, §2
The initial trichromatic coordinates of the composition before irradiation (L0, a0 and b0) were thus determined. The composition was then subjected to a UV irradiation (flux of 2 mW/cm^2 of a UVA radiation) for two minutes and then, immediately after stopping the irradiation, the trichromatic coordinates after irradiation (L, a and b) were determined. Less than 5 seconds elapsed between the stopping of the irradiation and the determination of the new coordinates.
The ΔE was then calculated in the following manner: ΔE=[(L−L0)^2+(a−a0)^2+(b−b0) ^2]^1/2
A composition was prepared, comprising: • 0.05% by weight of 3-phenyl-3-(4-piperidinophenyl)-6-morpholino-3H-naphtho[2,1-b]pyran (Reversacol Ruby from James Robinson), • 15% by weight of polyethylene wax (apolar wax), • qs 100% of phenylsilicone oil (DC556 from Dow Corning).
as §3
as §4, with “composition was” for “compositions were”
as §5
15% by weight of polyethylene wax (apolar wax) was added to the mixtures prepared in Example 6 (oils+0.05% by weight of Reversacol Ruby dye), and the trichromatic coordinates L, a and b were then measured, before and after irradiation with UV for 2 minutes (flux of 2 mW/cm^2 of UVA) on thin films of composition, 50 microns thick, poured onto a contrast card.
To do this, a Minolta 3700D spectrocolorimeter in reflection mode was used; less than 5 seconds elapsed between stopping the irradiation and determining the new coordinates.

[5] = Solvatochromism: ΔE′ of oil + dye mixture versus oil alone, transmission, no UV (Example 6); design: key: ΔE′ = √(ΔL²+Δa²+Δb²), oil alone vs oil+dye, transmission; conditions: without UV
Protocol: The trichromatic coordinates (Lh, ah and bh) of the oil alone and of the oil+dye mixture (Lm, am and bm) were thus determined, and the ΔE′ was calculated in the following manner: ΔE′=[Lh−Lm)^2+(ah−am)^2+(bh−bm)^2]^1/2.
To do this, a Minolta 3700D spectrocolorimeter in transmission mode was used, with a plastic cuvette (“cuvette walls+oil+optional dye” optical path length=1 cm).

[6] = ΔE of oil + dye mixtures after UVA irradiation (Example 7); design: key: ΔE = [(Lm′−Lm)^2+(am′−am)^2+(bm′−bm)^2]^1/2, before vs after UVA; conditions: UVA 2 mW/cm^2 for 2 minutes
Protocol: The mixtures prepared in Example 6 were irradiated with UV (flux of 2 mW/cm^2 of UVA) for 2 minutes.
The trichromatic coordinates of the mixture after irradiation (Lm′, am′ and bm′) were again determined, as in Example 2, and the ΔE was calculated in the following manner: ΔE=[(Lm′−Lm)^2+(am′−am)^2+(bm′−bm)^2]^1/2.
Less than 5 seconds elapsed between stopping the irradiation and determining the new coordinates.

[7] = 0.05% dye in Capric/caprylic acid triglyceride
[8] = 0.05% dye in Diisostearyl malate
[9] = 0.05% dye in Hydrogenated polyisobutene
[10] = 0.05% dye in Isononyl isononanoate
[11] = 0.05% dye in Tridecyl trimellitate

- ΔE [1]: 51
SMILES: COc1ccc(C2(c3ccc(OC)cc3)C=Cc3c(cc(N4CCOCC4)c4ccccc34)O2)cc1 [3,3-di(4-methoxyphenyl)-6-morpholino-3H-naphtho-[2,1-b]pyran]

- ΔE [1]: 53
SMILES: C1=CC(c2ccccc2)(c2ccc(N3CCOCC3)cc2)Oc2cc(N3CCOCC3)c3ccccc3c21 (stereo not drawn) [3-phenyl-3-(4-morpholinophenyl)-6-morpholino-3H-naphtho[2,1-b]pyran]

- Dissolution at elevated temperature (60° C.) ([2]; 0.05% by weight dye in Phenyltrimethylsiloxytrisiloxane (20 cSt) DC556 from Dow Corning): Total dissolution
- Dissolution at elevated temperature (60° C.) ([2]; 0.05% by weight dye in Polyphenyltrimethylsiloxydimethylsiloxane (1000 cSt) Belsil PDM 1000 from Wacker): Total dissolution
- Coloration of the solution of the dye (solvatochromic effect) ([2]; in the phenylsilicones, not for the other oils): pink coloration
- Dissolution in the other silicone-based media after cooling to room temperature ([2]; non-phenylated silicone media, room temperature): virtually undissolved
- Dissolution at elevated temperature in non-phenylated oils ([2]; non-phenylated silicone oils, elevated temperature): dissolves poorly
- Dissolution at elevated temperature in the phenylated oils ([2]; phenylated silicone oils, irrespective of viscosity, elevated temperature): complete
- Dissolution in phenylsilicones after cooling to room temperature ([2]; phenylsilicones, room temperature): virtually complete dissolution
- Initial coloration of the mixture before irradiation [3]: pink
- Coloration after irradiation ([3]; UV (sunlight) for 2 minutes): strong orange-red
- ΔE ([4]; 0.05% dye, 15% polyethylene wax, qs phenylsilicone oil DC556, UVA 2 mW/cm^2 for two minutes): 37.38
- ΔE ([4]; 15% wax + 0.05% dye in Castor oil, UVA 2 mW/cm^2 for 2 minutes, 50 micron film): 26.75
- ΔE ([4]; 15% wax + 0.05% dye in Diisostearyl malate, UVA 2 mW/cm^2 for 2 minutes, 50 micron film): 43.12
- ΔE ([4]; 15% wax + 0.05% dye in Hydrogenated polyisobutene, UVA 2 mW/cm^2 for 2 minutes, 50 micron film): 18.36
- ΔE ([4]; 15% wax + 0.05% dye in Isododecane, UVA 2 mW/cm^2 for 2 minutes, 50 micron film): 27.21
- ΔE ([4]; 15% wax + 0.05% dye in Isononyl isononanoate, UVA 2 mW/cm^2 for 2 minutes, 50 micron film): 27.74
- ΔE ([4]; 15% wax + 0.05% dye in Octyldodecanol, UVA 2 mW/cm^2 for 2 minutes, 50 micron film): 31.09
- ΔE ([4]; 15% wax + 0.05% dye in Tridecyl trimellitate, UVA 2 mW/cm^2 for 2 minutes, 50 micron film): 31.98
- ΔE ([4]; 15% wax + 0.05% dye in Triisononanoin, UVA 2 mW/cm^2 for 2 minutes, 50 micron film): 33.70
- ΔE [1]: 49
- ΔE′ of the oil + dye mixture [5, 7]: 12.4093
- ΔE′ of the oil + dye mixture ([5]; 0.05% dye in Castor oil): 33.6278
- ΔE′ of the oil + dye mixture [5, 8]: 12.9041
- ΔE′ of the oil + dye mixture [5, 9]: 6.6920
- ΔE′ of the oil + dye mixture ([5]; 0.05% dye in Isododecane): 4.2421
- ΔE′ of the oil + dye mixture [5, 10]: 7.7386
- ΔE′ of the oil + dye mixture ([5]; 0.05% dye in Octyldodecanol): 37.6049
- ΔE′ of the oil + dye mixture [5, 11]: 14.2178
- ΔE′ of the oil + dye mixture ([5]; 0.05% dye in Triisononanoin): 12.8122
- ΔE [6, 7]: 23.70
- ΔE ([6]; 0.05% dye in Castor oil): 19.02
- ΔE [6, 8]: 38.79
- ΔE [6, 9]: 17.69
- ΔE ([6]; 0.05% dye in Isododecane): 19.17
- ΔE [6, 10]: 25.47
- ΔE ([6]; 0.05% dye in Octyldodecanol): 20.88
- ΔE [6, 11]: 13.74
- ΔE ([6]; 0.05% dye in Triisononanoin): 21.62
SMILES: C1=CC(c2ccccc2)(c2ccc(N3CCCCC3)cc2)Oc2cc(N3CCOCC3)c3ccccc3c21 (stereo not drawn) [Reversacol Ruby, 3-phenyl-3-(4-piperidinophenyl)-6-morpholino-3H-naphtho[2,1-b]pyran]
